Measurements published in patent US20250084056A1, “SUBSTITUTED OXOISOINDOLINYL PIPERIDINE-2,6-DIONE COMPOUNDS” (BRISTOL-MYERS SQUIBB COMPANY, priority 2023, published 2025).

Key:
Assay type in all cases: cell-based
[1] = tested on: Phospho-Rb (Ser807/811); test: Phospho-Retinoblastoma (pRB) Cellular Assay; conditions: Homo sapiens, OVCAR-3, NIH OVCAR3 cells, 24 hours; for IC50: concentration giving 50% response; for Emax: maximum response, reference compound at 10 μM = 100%, read-out: pRB Ymax
How it was run: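 Phospho-Rb (Ser807/811) kit read-out on EnVision after lysis (≥4 h, room temperature, dark) of OVCAR3 cells exposed to compound dilutions for 24 h. IC50 and maximum response Ymax are relative to a 10 μM reference compound defining 100%.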

[2] = biological target: GSPT1 (Homo sapiens, UniProt P15170+Q96SW2); test: GSPT1 Cellular Degradation Assay (DF15-GSPT1-ePL); parameters: expressed in transfected cells; conditions: DF15-GSPT1-ePL cells, 20 hours
How it was run: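 DC50 and Dmax were derived from chemiluminescence, with 75% response set by the reference compound at […]. Readout was ePL enzyme-fragment complementation in a DF15 line expressing chimeric GSPT1. Cells were exposed to compound for 20 h at 37 °C in RPMI 1640 with 10% FBS, cooled 30 min, then lysed with substrate for 60 min.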

[3] = biological target: Cyclin E1 (Homo sapiens, UniProt P24864+Q96SW2); test: Cyclin E1 Cellular Degradation Assay (MSD); parameters: endogenous in cells; host or cells: OVCAR3; conditions: for DC50 / Dmax: Cyclin E1 cellular degradation; for Dmax: maximum degradation; for Ratio of GSPT1 DC50/Cyclin E1 DC50: selectivity for degradation of Cyclin E1 over GSPT1
How it was run: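 Cyclin E1 remaining after 24 h compound exposure of OVCAR3 cells was quantified in lysates by electrochemiluminescent MSD sandwich assay. DC50 (50% response concentration) and Dmax (maximum response) were calculated, with 110% response set by a reference compound at […].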

GSPT1, sequence (P15170 whole entry, the tested form may be a part): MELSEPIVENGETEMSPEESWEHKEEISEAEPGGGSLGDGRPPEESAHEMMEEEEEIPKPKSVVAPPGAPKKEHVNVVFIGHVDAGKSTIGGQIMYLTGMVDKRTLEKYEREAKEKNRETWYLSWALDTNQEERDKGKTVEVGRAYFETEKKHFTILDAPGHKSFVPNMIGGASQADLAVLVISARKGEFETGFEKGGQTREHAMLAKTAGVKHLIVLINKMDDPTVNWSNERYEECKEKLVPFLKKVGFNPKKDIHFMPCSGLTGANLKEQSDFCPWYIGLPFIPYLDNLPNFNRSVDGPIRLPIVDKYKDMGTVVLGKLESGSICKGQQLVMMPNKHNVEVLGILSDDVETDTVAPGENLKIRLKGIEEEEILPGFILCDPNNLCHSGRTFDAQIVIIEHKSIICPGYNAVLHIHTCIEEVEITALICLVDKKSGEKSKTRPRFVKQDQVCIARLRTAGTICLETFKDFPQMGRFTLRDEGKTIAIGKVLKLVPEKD
GSPT1, sequence (Q96SW2 whole entry, the tested form may be a part): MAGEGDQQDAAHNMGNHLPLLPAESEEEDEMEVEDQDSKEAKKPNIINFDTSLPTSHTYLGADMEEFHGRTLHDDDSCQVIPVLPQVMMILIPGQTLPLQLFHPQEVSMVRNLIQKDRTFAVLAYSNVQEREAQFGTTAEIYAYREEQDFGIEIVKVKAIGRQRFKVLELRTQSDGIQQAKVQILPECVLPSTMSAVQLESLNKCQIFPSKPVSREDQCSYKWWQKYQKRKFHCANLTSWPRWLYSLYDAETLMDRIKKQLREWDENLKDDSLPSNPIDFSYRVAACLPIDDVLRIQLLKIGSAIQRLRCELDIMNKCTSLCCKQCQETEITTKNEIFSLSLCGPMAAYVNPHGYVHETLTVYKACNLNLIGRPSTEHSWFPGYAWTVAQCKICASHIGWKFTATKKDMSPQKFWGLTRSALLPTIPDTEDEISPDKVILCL
GSPT1, sequence (Q16531 whole entry partner, the tested form may be a part): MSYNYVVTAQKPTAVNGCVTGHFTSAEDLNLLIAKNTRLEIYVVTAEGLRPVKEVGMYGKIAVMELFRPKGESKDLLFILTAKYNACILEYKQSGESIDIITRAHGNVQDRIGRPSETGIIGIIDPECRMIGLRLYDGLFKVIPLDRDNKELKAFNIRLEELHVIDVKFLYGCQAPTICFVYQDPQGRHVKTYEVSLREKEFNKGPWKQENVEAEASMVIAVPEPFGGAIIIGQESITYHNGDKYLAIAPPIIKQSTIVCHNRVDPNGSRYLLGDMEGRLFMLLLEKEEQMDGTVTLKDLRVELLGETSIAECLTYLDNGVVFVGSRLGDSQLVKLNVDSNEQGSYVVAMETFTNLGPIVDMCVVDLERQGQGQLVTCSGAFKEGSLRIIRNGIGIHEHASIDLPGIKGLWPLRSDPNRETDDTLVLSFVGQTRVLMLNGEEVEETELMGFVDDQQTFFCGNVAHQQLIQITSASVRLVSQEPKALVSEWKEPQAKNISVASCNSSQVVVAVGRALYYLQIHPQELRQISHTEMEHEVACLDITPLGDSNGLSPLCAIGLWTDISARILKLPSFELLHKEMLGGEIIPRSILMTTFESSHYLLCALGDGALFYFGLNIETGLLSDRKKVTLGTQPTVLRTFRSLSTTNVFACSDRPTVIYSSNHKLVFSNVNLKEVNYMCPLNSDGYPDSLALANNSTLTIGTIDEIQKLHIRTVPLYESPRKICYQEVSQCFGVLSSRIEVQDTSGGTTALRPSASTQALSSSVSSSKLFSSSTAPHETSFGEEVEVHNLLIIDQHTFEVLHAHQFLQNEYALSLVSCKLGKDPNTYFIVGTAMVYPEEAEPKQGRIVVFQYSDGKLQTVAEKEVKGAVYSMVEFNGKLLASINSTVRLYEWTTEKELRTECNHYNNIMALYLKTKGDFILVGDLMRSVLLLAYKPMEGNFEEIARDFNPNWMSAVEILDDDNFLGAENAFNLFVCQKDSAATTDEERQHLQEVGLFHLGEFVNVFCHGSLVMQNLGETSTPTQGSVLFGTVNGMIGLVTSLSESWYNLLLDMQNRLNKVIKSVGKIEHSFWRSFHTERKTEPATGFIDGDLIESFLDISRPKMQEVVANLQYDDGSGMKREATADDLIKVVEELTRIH
Cyclin E1, sequence (P24864 whole entry): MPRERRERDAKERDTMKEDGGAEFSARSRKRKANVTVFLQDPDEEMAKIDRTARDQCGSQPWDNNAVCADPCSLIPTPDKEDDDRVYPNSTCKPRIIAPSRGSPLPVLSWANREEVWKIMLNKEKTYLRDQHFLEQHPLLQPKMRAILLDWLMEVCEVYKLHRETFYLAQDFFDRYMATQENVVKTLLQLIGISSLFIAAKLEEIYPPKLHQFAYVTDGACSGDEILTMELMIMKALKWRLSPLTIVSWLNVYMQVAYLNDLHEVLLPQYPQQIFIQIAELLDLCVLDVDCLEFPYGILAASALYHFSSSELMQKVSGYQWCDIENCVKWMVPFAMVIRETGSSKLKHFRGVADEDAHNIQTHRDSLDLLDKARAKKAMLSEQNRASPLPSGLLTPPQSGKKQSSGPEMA
Cyclin E1, sequence (Q96SW2 whole entry): as the sequence (Q96SW2 whole entry, the tested form may be a part) above
Cyclin E1, sequence (Q16531 whole entry partner): as the sequence (Q16531 whole entry partner, the tested form may be a part) above

## COc1c(COC(=O)Nc2ccc(Oc3ccc(F)c(C)c3)cc2)ccc2c1C(=O)N(C1CCC(=O)NC1=O)C2 (centres unmarked) [Example 96, [2-(2,6-dioxopiperidin-3-yl)-4-methoxy-3-oxo-2,3-dihydro-1H-isoindol-5-yl]methyl N-[4-(4-fluoro-3-methylphenoxy)phenyl]carbamate]
[1]
  IC50: 100 nM
  Emax: 117%
[2]
  DC50: > 14000 nM
  Dmax: 27%
[3]
  DC50: 129 nM
  Dmax: 106%
  Ratio of GSPT1 DC50/Cyclin E1 DC50: >109

## COc1cc(Oc2ccc(F)c(C)c2)ccc1NC(=O)OCc1ccc2c(c1OC)C(=O)N(C1CCC(=O)NC1=O)C2 (centres unmarked) [Example 97, [2-(2,6-dioxopiperidin-3-yl)-4-methoxy-3-oxo-2,3-dihydro-1H-isoindol-5-yl]methyl N-[4-(4-fluoro-3-methylphenoxy)-2-methoxyphenyl]carbamate]
[1]
  IC50: 326 nM
  Emax: 101%
[2]
  DC50: > 14000 nM
  Dmax: 24%
[3]
  DC50: 357 nM
  Dmax: 106%
  Ratio of GSPT1 DC50/Cyclin E1 DC50: >39

## COc1c(COC(=O)Nc2ccc(Oc3ccc(F)c(Cl)c3)cc2F)ccc2c1C(=O)N(C1CCC(=O)NC1=O)C2 (centres unmarked) [Example 98, [2-(2,6-dioxopiperidin-3-yl)-4-methoxy-3-oxo-2,3-dihydro-1H-isoindol-5-yl]methyl N-[4-(3-chloro-4-fluorophenoxy)-2-fluorophenyl]carbamate]
[1]
  IC50: 92 nM
  Emax: 106%
[2]
  DC50: > 14000 nM
  Dmax: 28%
[3]
  DC50: 97 nM
  Dmax: 109%
  Ratio of GSPT1 DC50/Cyclin E1 DC50: >144

## COc1c(COC(=O)Nc2ccc(Oc3ccc(F)c(C)c3)cc2F)ccc2c1C(=O)N(C1CCC(=O)NC1=O)C2 (centres unmarked) [Example 99, [2-(2,6-dioxopiperidin-3-yl)-4-methoxy-3-oxo-2,3-dihydro-1H-isoindol-5-yl]methyl N-[2-fluoro-4-(4-fluoro-3-methylphenoxy)phenyl]carbamate]
[1]
  IC50: 221 nM
  Emax: 114%
[2]
  DC50: > 14000 nM
  Dmax: 22%
[3]
  DC50: 118 nM
  Dmax: 109%
  Ratio of GSPT1 DC50/Cyclin E1 DC50: >118

## COc1cc(Oc2ccc(F)c(Cl)c2)ccc1NC(=O)OCc1ccc2c(c1OC)C(=O)N(C1CCC(=O)NC1=O)C2 (centres unmarked) [Example 100, [2-(2,6-dioxopiperidin-3-yl)-4-methoxy-3-oxo-2,3-dihydro-1H-isoindol-5-yl]methyl N-[4-(3-chloro-4-fluorophenoxy)-2-methoxyphenyl]carbamate]
[1]
  IC50: 140 nM
  Emax: 118%
[2]
  DC50: > 14000 nM
  Dmax: 33%
[3]
  DC50: 327 nM
  Dmax: 112%
  Ratio of GSPT1 DC50/Cyclin E1 DC50: >43

## COc1c(COC(=O)Nc2ccc(Oc3ccccc3C)cc2)ccc2c1C(=O)N(C1CCC(=O)NC1=O)C2 (centres unmarked) [Example 101, [2-(2,6-dioxopiperidin-3-yl)-4-methoxy-3-oxo-2,3-dihydro-1H-isoindol-5-yl]methyl N-[4-(2-methylphenoxy)phenyl]carbamate]
[1]
  IC50: 61 nM
  Emax: 111%
[2]
  DC50: > 14000 nM
  Dmax: 18%
[3]
  DC50: 72 nM
  Dmax: 108%
  Ratio of GSPT1 DC50/Cyclin E1 DC50: >194

## COc1c(COC(=O)Nc2ccc(Oc3ccc(F)cc3Cl)cc2)ccc2c1C(=O)N(C1CCC(=O)NC1=O)C2 (centres unmarked) [Example 102, [2-(2,6-dioxopiperidin-3-yl)-4-methoxy-3-oxo-2,3-dihydro-1H-isoindol-5-yl]methyl N-[4-(2-chloro-4-fluorophenoxy)phenyl]carbamate]
[1]
  IC50: 121 nM
  Emax: 120%
[2]
  DC50: > 14000 nM
  Dmax: 35%
[3]
  DC50: 59 nM
  Dmax: 108%
  Ratio of GSPT1 DC50/Cyclin E1 DC50: >236

## COc1c(COC(=O)Nc2ccc(Oc3ccc(F)cc3Cl)cc2C)ccc2c1C(=O)N(C1CCC(=O)NC1=O)C2 (centres unmarked) [Example 103, [2-(2,6-dioxopiperidin-3-yl)-4-methoxy-3-oxo-2,3-dihydro-1H-isoindol-5-yl]methyl N-[4-(2-chloro-4-fluorophenoxy)-2-methylphenyl]carbamate]
[1]
  IC50: 86 nM
  Emax: 100%
[2]
  DC50: > 14000 nM
  Dmax: 22%
[3]
  DC50: 148 nM
  Dmax: 107%
  Ratio of GSPT1 DC50/Cyclin E1 DC50: >95

## COc1cc(Oc2ccc(F)cc2Cl)ccc1NC(=O)OCc1ccc2c(c1OC)C(=O)N(C1CCC(=O)NC1=O)C2 (centres unmarked) [Example 104, [2-(2,6-dioxopiperidin-3-yl)-4-methoxy-3-oxo-2,3-dihydro-1H-isoindol-5-yl]methyl N-[4-(2-chloro-4-fluorophenoxy)-2-methoxyphenyl]carbamate]
[1]
  IC50: 50 nM
  Emax: 118%
[2]
  DC50: > 14000 nM
  Dmax: 7%
[3]
  DC50: 37 nM
  Dmax: 108%
  Ratio of GSPT1 DC50/Cyclin E1 DC50: >380

## COc1c(COC(=O)Nc2ccc(Oc3ccc(F)cc3Cl)cc2F)ccc2c1C(=O)N(C1CCC(=O)NC1=O)C2 (centres unmarked) [Example 105, [2-(2,6-dioxopiperidin-3-yl)-4-methoxy-3-oxo-2,3-dihydro-1H-isoindol-5-yl]methyl N-[4-(2-chloro-4-fluorophenoxy)-2-fluorophenyl]carbamate]
[1]
  IC50: 33 nM
  Emax: 120%
[2]
  DC50: > 14000 nM
  Dmax: 50%
[3]
  DC50: 52 nM
  Dmax: 107%
  Ratio of GSPT1 DC50/Cyclin E1 DC50: >268

## COc1c(COC(=O)Nc2ccc(Oc3cc(F)ccc3Cl)cc2)ccc2c1C(=O)N(C1CCC(=O)NC1=O)C2 (centres unmarked) [Example 106, [2-(2,6-dioxopiperidin-3-yl)-4-methoxy-3-oxo-2,3-dihydro-1H-isoindol-5-yl]methyl N-[4-(2-chloro-5-fluorophenoxy)phenyl]carbamate]
[1]
  IC50: 178 nM
  Emax: 113%
[2]
  DC50: > 14000 nM
  Dmax: 47%
[3]
  DC50: 57 nM
  Dmax: 106%
  Ratio of GSPT1 DC50/Cyclin E1 DC50: >245

## COc1c(COC(=O)Nc2ccc(Oc3ccccc3Cl)cc2F)ccc2c1C(=O)N(C1CCC(=O)NC1=O)C2 (centres unmarked) [Example 107, [2-(2,6-dioxopiperidin-3-yl)-4-methoxy-3-oxo-2,3-dihydro-1H-isoindol-5-yl]methyl N-[4-(2-chlorophenoxy)-2-fluorophenyl]carbamate]
[1]
  IC50: 106 nM
  Emax: 124%
[2]
  DC50: 10000 nM
  Dmax: 63%
[3]
  DC50: 69 nM
  Dmax: 108%
  Ratio of GSPT1 DC50/Cyclin E1 DC50: 146

## COc1cc(Oc2cc(F)c(F)cc2Cl)ccc1NC(=O)OCc1ccc2c(c1OC)C(=O)N(C1CCC(=O)NC1=O)C2 (centres unmarked) [Example 108, [2-(2,6-dioxopiperidin-3-yl)-4-methoxy-3-oxo-2,3-dihydro-1H-isoindol-5-yl]methyl N-[4-(2-chloro-4,5-difluorophenoxy)-2-methoxyphenyl]carbamate]
[1]
  IC50: 111 nM
  Emax: 112%
[2]
  DC50: > 14000 nM
  Dmax: 24%
[3]
  DC50: 99 nM
  Dmax: 106%
  Ratio of GSPT1 DC50/Cyclin E1 DC50: >142

## COc1c(COC(=O)Nc2ccc(Oc3cc(F)c(F)cc3Cl)cc2F)ccc2c1C(=O)N(C1CCC(=O)NC1=O)C2 (centres unmarked) [Example 109, [2-(2,6-dioxopiperidin-3-yl)-4-methoxy-3-oxo-2,3-dihydro-1H-isoindol-5-yl]methyl N-[4-(2-chloro-4,5-difluorophenoxy)-2-fluorophenyl]carbamate]
[1]
  IC50: 66 nM
  Emax: 114%
[2]
  DC50: > 14000 nM
  Dmax: 42%
[3]
  DC50: 111 nM
  Dmax: 107%
  Ratio of GSPT1 DC50/Cyclin E1 DC50: >127

## COc1c(COC(=O)Nc2ccc(Oc3cccc(F)c3F)cc2)ccc2c1C(=O)N(C1CCC(=O)NC1=O)C2 (centres unmarked) [Example 110, [2-(2,6-dioxopiperidin-3-yl)-4-methoxy-3-oxo-2,3-dihydro-1H-isoindol-5-yl]methyl N-[4-(2,3-difluorophenoxy)phenyl]carbamate]
[1]
  IC50: 72 nM
  Emax: 99%
[2]
  DC50: > 14000 nM
  Dmax: 20%
[3]
  DC50: 173 nM
  Dmax: 106%
  Ratio of GSPT1 DC50/Cyclin E1 DC50: >81

## COc1c(COC(=O)Nc2ccc(Oc3cccc(F)c3Cl)cc2)ccc2c1C(=O)N(C1CCC(=O)NC1=O)C2 (centres unmarked) [Example 111, [2-(2,6-dioxopiperidin-3-yl)-4-methoxy-3-oxo-2,3-dihydro-1H-isoindol-5-yl]methyl N-[4-(2-chloro-3-fluorophenoxy)phenyl]carbamate]
[1]
  IC50: 74 nM
  Emax: 99%
[2]
  DC50: > 14000 nM
  Dmax: 15%
[3]
  DC50: 95 nM
  Dmax: 106%
  Ratio of GSPT1 DC50/Cyclin E1 DC50: >147

## COc1c(COC(=O)Nc2ccc(Oc3c(F)cccc3F)cc2)ccc2c1C(=O)N(C1CCC(=O)NC1=O)C2 (centres unmarked) [Example 112, [2-(2,6-dioxopiperidin-3-yl)-4-methoxy-3-oxo-2,3-dihydro-1H-isoindol-5-yl]methyl N-[4-(2,6-difluorophenoxy)phenyl]carbamate]
[1]
  IC50: 46 nM
  Emax: 115%
[2]
  DC50: > 14000 nM
  Dmax: 26%
[3]
  DC50: 226 nM
  Dmax: 105%
  Ratio of GSPT1 DC50/Cyclin E1 DC50: >62
